Source: patent US12252493B2, “Imidazo[1,2-c]pyrimidine derivatives as PRC2 inhibitors for treating cancer” (Mirati Therapeutics, Inc., priority 2019, dated 2025)
Like-named read-outs stand apart in the source and are kept apart here.

Legend:
[1] = molecular target: purified human, His-tagged PRC2 complex (Homo sapiens (Human), UniProt O75530); assay: Hot Spot HMT assay of PRC2 enzymatic activity (tritiated methyl transfer from SAM to core histone); type: biochemical; conditions: 10 nM purified PRC2 complex, 0.05 mg/ml core histone H3, 1 uM 3H-SAM, 1 hr at 30° C.; read-out: IC50, Inhibition of PRC2-mediated Enzymatic Activity
Chain of purified human, His-tagged PRC2 complex (Q15910 whole entry): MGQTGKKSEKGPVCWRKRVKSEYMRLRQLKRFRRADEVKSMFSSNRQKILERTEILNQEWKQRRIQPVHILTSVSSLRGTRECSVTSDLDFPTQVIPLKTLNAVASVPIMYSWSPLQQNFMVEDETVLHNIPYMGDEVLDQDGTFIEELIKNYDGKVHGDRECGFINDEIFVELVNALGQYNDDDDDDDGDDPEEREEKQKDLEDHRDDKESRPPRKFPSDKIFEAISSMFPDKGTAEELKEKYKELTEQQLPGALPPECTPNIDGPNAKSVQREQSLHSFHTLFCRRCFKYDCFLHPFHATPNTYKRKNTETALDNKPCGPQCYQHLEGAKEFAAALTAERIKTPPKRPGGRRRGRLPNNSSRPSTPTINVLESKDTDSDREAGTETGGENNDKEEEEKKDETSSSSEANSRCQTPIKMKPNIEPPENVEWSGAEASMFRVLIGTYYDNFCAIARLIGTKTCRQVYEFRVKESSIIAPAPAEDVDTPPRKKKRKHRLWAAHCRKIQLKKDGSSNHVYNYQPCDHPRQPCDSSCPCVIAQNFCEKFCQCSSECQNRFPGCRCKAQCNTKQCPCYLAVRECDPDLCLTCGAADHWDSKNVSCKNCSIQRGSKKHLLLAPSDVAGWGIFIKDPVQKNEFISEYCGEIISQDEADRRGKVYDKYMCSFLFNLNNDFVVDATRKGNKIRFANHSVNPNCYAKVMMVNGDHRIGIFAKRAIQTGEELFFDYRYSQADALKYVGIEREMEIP
Chain of purified human, His-tagged PRC2 complex (O75530 whole entry): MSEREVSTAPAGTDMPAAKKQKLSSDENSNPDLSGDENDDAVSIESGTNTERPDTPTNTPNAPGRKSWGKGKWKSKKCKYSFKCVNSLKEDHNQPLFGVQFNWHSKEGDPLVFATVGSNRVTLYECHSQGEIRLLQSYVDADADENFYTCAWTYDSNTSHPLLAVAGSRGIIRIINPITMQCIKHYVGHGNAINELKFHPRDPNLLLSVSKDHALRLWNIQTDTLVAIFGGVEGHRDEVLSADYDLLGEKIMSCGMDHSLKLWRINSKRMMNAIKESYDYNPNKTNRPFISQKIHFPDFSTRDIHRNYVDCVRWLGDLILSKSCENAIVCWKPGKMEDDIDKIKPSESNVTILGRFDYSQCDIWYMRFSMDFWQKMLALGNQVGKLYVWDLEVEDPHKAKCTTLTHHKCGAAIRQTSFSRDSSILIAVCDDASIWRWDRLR
Chain of purified human, His-tagged PRC2 complex (Q15022 whole entry partner): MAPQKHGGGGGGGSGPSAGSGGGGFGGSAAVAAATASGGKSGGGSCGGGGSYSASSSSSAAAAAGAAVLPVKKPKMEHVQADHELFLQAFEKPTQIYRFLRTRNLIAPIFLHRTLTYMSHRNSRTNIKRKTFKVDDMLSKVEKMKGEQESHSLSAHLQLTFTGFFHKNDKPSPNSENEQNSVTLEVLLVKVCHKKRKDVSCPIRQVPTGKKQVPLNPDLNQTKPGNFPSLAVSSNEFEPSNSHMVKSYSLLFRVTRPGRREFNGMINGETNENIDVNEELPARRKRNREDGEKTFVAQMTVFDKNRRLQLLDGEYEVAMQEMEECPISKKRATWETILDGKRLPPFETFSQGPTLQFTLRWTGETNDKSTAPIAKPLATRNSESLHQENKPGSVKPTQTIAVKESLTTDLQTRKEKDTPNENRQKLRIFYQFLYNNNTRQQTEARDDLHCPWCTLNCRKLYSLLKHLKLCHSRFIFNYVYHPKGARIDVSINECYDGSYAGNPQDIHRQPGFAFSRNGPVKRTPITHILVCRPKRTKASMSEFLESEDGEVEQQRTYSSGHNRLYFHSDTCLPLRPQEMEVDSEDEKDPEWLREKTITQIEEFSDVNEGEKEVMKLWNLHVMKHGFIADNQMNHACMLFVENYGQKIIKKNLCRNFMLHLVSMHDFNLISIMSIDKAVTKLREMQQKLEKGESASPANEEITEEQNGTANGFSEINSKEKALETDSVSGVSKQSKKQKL
Chain of purified human, His-tagged PRC2 complex (Q6ZN18 whole entry partner): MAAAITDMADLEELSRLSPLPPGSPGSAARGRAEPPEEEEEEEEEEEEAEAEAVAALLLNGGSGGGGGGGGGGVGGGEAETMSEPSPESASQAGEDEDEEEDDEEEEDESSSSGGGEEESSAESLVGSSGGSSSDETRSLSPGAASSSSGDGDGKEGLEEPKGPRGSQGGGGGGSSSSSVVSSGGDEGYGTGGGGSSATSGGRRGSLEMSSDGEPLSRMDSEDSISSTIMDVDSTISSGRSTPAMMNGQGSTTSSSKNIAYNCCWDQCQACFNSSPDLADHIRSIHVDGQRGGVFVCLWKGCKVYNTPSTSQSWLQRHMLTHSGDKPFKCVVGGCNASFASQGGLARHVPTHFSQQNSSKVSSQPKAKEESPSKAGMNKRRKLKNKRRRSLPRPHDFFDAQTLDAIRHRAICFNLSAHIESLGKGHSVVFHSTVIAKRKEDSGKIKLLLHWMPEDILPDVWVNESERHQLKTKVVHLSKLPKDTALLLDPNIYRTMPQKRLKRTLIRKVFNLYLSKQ
Chain of purified human, His-tagged PRC2 complex (Q09028 whole entry partner): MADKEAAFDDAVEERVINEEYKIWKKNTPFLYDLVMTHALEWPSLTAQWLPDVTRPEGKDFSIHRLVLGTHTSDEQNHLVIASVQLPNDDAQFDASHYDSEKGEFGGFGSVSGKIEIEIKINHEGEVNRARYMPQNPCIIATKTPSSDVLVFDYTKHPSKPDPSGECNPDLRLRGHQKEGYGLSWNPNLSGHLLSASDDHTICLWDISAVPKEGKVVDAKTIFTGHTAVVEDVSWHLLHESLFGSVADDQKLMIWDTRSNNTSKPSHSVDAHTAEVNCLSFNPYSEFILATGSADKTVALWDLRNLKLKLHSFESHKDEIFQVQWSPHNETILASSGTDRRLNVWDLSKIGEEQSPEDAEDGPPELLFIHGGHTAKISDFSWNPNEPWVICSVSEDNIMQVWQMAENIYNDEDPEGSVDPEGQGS
Description: Ten-point dose-response curves for compounds of the present invention were determined using a Hot Spot HMT assay (Reaction Biology Corp; see Horiuchi et al., Assay Drug Dev Technol. (2013) 4: 227-236 doi: 10.1089/adt.2012.480). The assay uses purified human, His-tagged PRC2 complex, including N-terminal His-tagged EZH2 enzyme, N-terminal Flag-tagged embryonic ectoderm development protein (EED), N-terminal His-tagged suppressor of zeste 12 (SUZ12), N-terminal His-tagged AEBP2, and N-terminal His-tagged RbAp48. In this assay, the transfer of the tritiated methyl group from radiolabeled S-adenosyl methionine (SAM) to purified core histone protein by EZH2 is quantitated after filtration to determine the activity of the core PRC2 complex in the presence and absence of compound.
Briefly, compounds of the present invention were solubilized in DMSO and a series of 10, three-fold serial dilutions were made for each compound in 15% DMSO. The initial starting concentration for the serial dilutions of each compound was 1.0 μM. Control samples lacking compound, EZH2 enzyme or various reaction components also were prepared and processed in parallel with compound test samples. SAH (S-(5-adenosyl)-L-homocysteine) was used as a positive control for assay validation.
An aliquot of each serial dilution of test compound was added to deep 384 well plate using Acoustic Technology instrument (Echo 550, LabCyte) containing reaction buffer (50 mM Tris-HCl (pH 8.)), 0.01% Brij35, 1 mM EDTA, 1 mM DTT, 1 mM PMSF and 1% DMSO), 10 nM purified PRC2 complex and 0.05 mg/ml core histone H3 in a 5 μl volume. The reaction was mixed gently and then pre-incubated for 20 min at 30° C. The enzymatic reaction was initiated by adding 1 uM S-Adenosyl-L-[methyl ^3H]methionine and incubated for 1 hr at 30° C. After 1 hr, the reaction product was detected using a filter binding method and the amount of tritiated H3 core histone was quantitated using a scintillation counter. The IC50 value for each compound was determined from each 10-point dose-response curve using GraphPad Prism software and the results for exemplary compounds of Formula (I) are shown in Table 5. Key: A=≤250 nM; B=>250 nM—≤500 nM; and C=>500 nM—≤2 μM.

[2] = system: PRC2-mediated histone H3 methylation (H3 Lys27 trimethylation) in Pfeiffer cells expressing mutant EZH2 (A677G); assay: Tri-Methyl Histone H3 (Lys 27) sandwich ELISA in Pfeiffer cells; type: cell-based, human; conditions: Pfeiffer cells, 96 hours incubation, ELISA, read-out: IC50, Inhibition of EZH2-mediated Histone H3 Trimethylation
From the text: The Pfeiffer cell line was established from a […] from a patient having metastatic diffuse large B-cell lymphoma (DLBCL). This cell line expresses a mutant form of the EZH2 enzyme (A677G) that results in enhanced EZH2 activity leading to increased methylation of histone H3 Lys27. Increased trimethylation of histone H3 Lys27 is believed to be implicated in tumorgenesis and poor clinical prognosis in lymphomas (McCabe et al., (2012) Nature 492:108-112).
Inhibition of PRC2-mediated histone H3 methylation by compounds of Formula (I) was measured by ELISA using a Tri-Methyl Histone H3 (Lys 27) Sandwich ELISA Kit (Cell Signaling Tech #7866C) in accordance with the manufacturer's instructions. Briefly, Pfeiffer cells were cultured in RPMI medium supplemented with 10% fetal bovine serum and 1% penicillin and 1% streptomycin in 96 well culture plates at 37° C. to a density of 8000 cells/90 μl/well and the cells were harvested. A series of 3-fold serial dilutions of each test compound of Formula (I) were prepared in RPMI medium and added to the cells at final concentrations ranging from 1 μM to 0.15 nM. The plates were incubated at 37° C. for 96 hours.
After incubation, the cells were pelleted by centrifugation in a pre-cooled 4° C. rotor at 1,100 rpm for 10 min and the supernatant was removed by aspiration. The cell pellet was resuspended in 55 μl of Lysis Buffer (0.4M HCl) and incubated on ice with periodic shaking for 30 minutes. The lysed cells were subjected to centrifugation at 4,200 rpm for 10 min at 4° C. and the supernatant containing acid-soluble proteins was collected and the remainder discarded. The acid-soluble proteins were brought to a neutral pH by the addition of 20 μl of Neutralization Buffer (1 M Sodium phosphate, dibasic (pH 12.5), 2.5 mM DTT and 1 mM PMSF) and the neutralized lysates were analyzed by ELISA.
A 65 μl aliquot of each cell lysate was added to a well of a microwell strip, the microwells were sealed using tape and incubated either at 37° C. for two hours or at 4° C. overnight. After incubation, the tape was removed at the microwells were washed four times using 200 μl of 1× Wash Buffer. To each washed microwell, a 100 μl aliquot of an anti-trimethyl histone H3 Lys27 Detection Antibody solution was added and the microwells were incubated at 37° C. for one hour. The Detection Antibody solution was removed by aspiration and the wells were washed four times each using 200 μl of 1× Wash Buffer.
A 100 μl aliquot of an HRP-linked secondary antibody was added to each well, the wells were sealed with tape and incubated at 37° C. for 30 min. The HRP-linked secondary antibody solution was removed by aspiration and the wells were washed four times using 200 μl of 1× Wash Buffer. A 100 μl aliquot of a TMB substrate was added to each well, the wells were sealed with tape and incubated at 37° C. for 10 min or 25° C. for 30 min. The reaction was stopped by the addition of 100 μl aliquot of a STOP solution and the plate was shaken briefly. The degree of histone H3 trimethylation was determined using a spectrophotometric readout by measuring the absorbance at 450 nm and then calculating the amount of trimethylated histone H3. Key: A=≤250 nM; B=>250 nM-≤500 nM; and C=>500 nM-≤5 μM.

[3] = system: Karpas 422 cells expressing mutant EZH2 (Y641N); assay: Karpas 422 cell viability (Cell Titre Glo) assay; type: cell-based, human; conditions: CTG viability, time point (Day 4, Day 7 or Day 11) not given, read-out: IC50, Inhibiting Proliferation of Cells Expressing an Activating Mutant Form of EZH2
Description: Karpas 422 cell line is a human B cell non-Hodgkin's lymphoma cell line established from a patient having DLBCL. This EZH2 heterozygotic cell line expresses a mutant form of EZH2 enzyme (Y641N) that increases histone H3 methylation and this mutation has been implicated in the tumorgenesis of lymphomas, such as DLBCL.
Karpas 422 cells (PHE cat no., 06101702) were cultured in RPMI medium supplemented with 20% fetal bovine serum and 1% penicillin/1% streptomycin and plated at a density of 1000 cells/90 μl/well in 96 well white assay plates. A dose response curve for compounds of the present invention was determined by adding a 10 μl aliquot of stock solutions of varying concentrations of compounds to the same medium in each well, over a concentration range of 10 μM using 3-fold dilutions to a final concentration of 1.5 nM. The plates were incubated at 37° C. for predetermined time periods, Day 4, Day 7, or Day 11, and the viability of the cells was measured using a CTG assay kit (Cell Titre Glo; Promega cat. no G7573) on Day 4 and Day 7 in accordance with the manufacturer's instructions.
For the viability assay for the Day 11 plates, the plates were subjected to centrifugation at 1100 rpm for five minutes on Day 7 and the supernatant was removed by aspiration. The cells were resuspended in 90 μl aliquot of the appropriate growth medium lacking the compound followed by addition of 10 μl of a 10× stock of the same compound at the same concentration. The viability of the Day 11 cells was measured using the CTG assay kit described above in accordance with the manufacturer's instructions. The IC50 values for each compound at each predetermined time point were calculated using Graph pad PRISM software and the results are shown in Table 7. Key: A=≤250 nM; B=>250 nM-≤500 nM; C=>500 nM-≤5 μM and N.D.=not determined.

Row | Structure (SMILES) | IC50 [1] [nM] | IC50 [2] [nM] | IC50 [3] [nM] | IC50 ([2]; Homo sapiens) [nM] | IC50 ([3]; Homo sapiens) [nM]
1 | Cc1cc(-c2cnc(NCc3c(F)ccc4c3CCO4)n3cc(C(C)N)nc23)n(C)n1 (single isomer, unassigned) [Example 12, 2-(1-aminoethyl)-8-(1,3-dimethyl-1H-pyrazol-5-yl)-N-((5-fluoro-2,3-dihydrobenzofuran-4-yl)methyl)imidazo[1,2-c]pyrimidin-5-amine] | < 250 | < 250 | < 250 | – | –
2 | COCc1cn2c(NCc3c(F)ccc4c3CCO4)ncc(-c3cc(C)nn3C)c2n1 [Example 9, 8-(1,3-dimethyl-1H-pyrazol-5-yl)-N-((5-fluoro-2,3-dihydrobenzofuran-4-yl)methyl)-2-(methoxymethyl)imidazo[1,2-c]pyrimidin-5-amine] | 500 to 2000 | – | – | 500 to 5000 | 250 to 500
3 | Cc1cc(S(C)(=O)=O)ccc1-c1cnc(NCc2c(F)ccc3c2CCO3)n2cc(CN)nc12 [Example 13, 2-(aminomethyl)-N-((5-fluoro-2,3-dihydrobenzofuran-4-yl)methyl)-8-(2-methyl-4-(methylsulfonyl)phenyl)imidazo[1,2-c]pyrimidin-5-amine] | < 250 | – | – | < 250 | < 250
4 | NCc1cn2c(NCc3c(F)ccc4c3CCO4)ncc(-c3cc(F)cc(F)c3)c2n1 [Example 16, 2-(aminomethyl)-8-(3,5-difluorophenyl)-N-((5-fluoro-2,3-dihydrobenzofuran-4-yl)methyl)imidazo[1,2-c]pyrimidin-5-amine] | 500 to 2000 | – | – | 500 to 5000 | 500 to 5000
5 | Cn1nccc1-c1cnc(NCc2c(F)ccc3c2CCO3)n2cc(CN)nc12 [Example 18, 2-(aminomethyl)-N-((5-fluoro-2,3-dihydrobenzofuran-4-yl)methyl)-8-(1-methyl-1H-pyrazol-5-yl)imidazo[1,2-c]pyrimidin-5-amine] | < 250 | – | – | < 250 | < 250
6 | Cc1ncccc1-c1cnc(NCc2c(F)ccc3c2CCO3)n2cc(CN)nc12 [Example 19, 2-(aminomethyl)-N-((5-fluoro-2,3-dihydrobenzofuran-4-yl)methyl)-8-(2-methylpyridin-3-yl)imidazo[1,2-c]pyrimidin-5-amine] | < 250 | – | – | 250 to 500 | < 250
7 | COc1ccc(-c2cnc(NCc3c(F)ccc4c3CCO4)n3cc(CN)nc23)c(C)n1 [Example 20, 2-(aminomethyl)-N-((5-fluoro-2,3-dihydrobenzofuran-4-yl)methyl)-8-(6-methoxy-2-methylpyridin-3-yl)imidazo[1,2-c]pyrimidin-5-amine] | < 250 | – | – | 250 to 500 | < 250

More lines, now with the values ahead:

Row | IC50 [1] [nM] | IC50 [2] [nM] | IC50 [3] [nM] | IC50 ([2]; Homo sapiens) [nM] | IC50 ([3]; Homo sapiens) [nM] | Structure (SMILES)
8 | < 250 | – | – | < 250 | 500 to 5000 | Cc1cc(-c2cnc(NCc3c(F)ccc4c3CCO4)n3cc(C(C)O)nc23)n(C)n1 (stereo not drawn) [Example 7, 1-(8-(1,3-dimethyl-1H-pyrazol-5-yl)-5-(((5-fluoro-2,3-dihydrobenzofuran-4-yl)methyl)amino)imidazo[1,2-c]pyrimidin-2-yl)ethan-1-ol]
9 | < 250 | – | – | < 250 | < 250 | Cc1cc(-c2cnc(NCc3c(F)ccc4c3CCO4)n3cc(CN)nc23)n(C)n1 [Example 10, 2-(aminomethyl)-8-(1,3-dimethyl-1H-pyrazol-5-yl)-N-((5-fluoro-2,3-dihydrobenzofuran-4-yl)methyl)imidazol[1,2-c]pyramidin-5-amine]
10 | 250 to 500 | – | – | < 250 | < 250 | Cn1nc(C(F)(F)F)cc1-c1cnc(NCc2c(F)ccc3c2CCO3)n2cc(CN)nc12 [Example 15, 2-(aminomethyl)-N-((5-fluoro-2,3-dihydrobenzofuran-4-yl)methyl)-8-(1-methyl-3-(trifluoromethyl)-1H-pyrazol-5-yl)imidazo[1,2-c]pyrimidin-5-amine]
11 | 500 to 2000 | – | – | 500 to 5000 | 500 to 5000 | Cc1c(F)cccc1-c1cnc(NCc2c(F)ccc3c2CCO3)n2cc(CN)nc12 [Example 17, 2-(aminomethyl)-N-((5-fluoro-2,3-dihydrobenzofuran-4-yl)methyl)-8-(3-fluoro-2-methylphenyl)imidazo[1,2-c]pyrimidin-5-amine]
12 | 500 to 2000 | – | – | 500 to 5000 | 500 to 5000 | Cc1cccc(-c2cnc(NCc3c(F)ccc4c3CCO4)n3cc(CN)nc23)c1 [Example 21, 2-(aminomethyl)-N-((5-fluoro-2,3-dihydrobenzofuran-4-yl)methyl)-8-(m-tolyl)imidazo[1,2-c]pyrimidin-5-amine]
